From patent US20200046703A1, “COMPOSITIONS AND METHODS FOR TREATMENT OF THE SIDE-EFFECTS ASSOCIATED WITH ADMINISTRATION OF THERAPEUTIC AGENTS” (ASYMMETRIC THERAPEUTICS, LLC, priority 2018, published 2020)

How the values were obtained:
[1] = system: hand-foot syndrome; conditions: allopurinol at 3%, topical; cited from earlier work
[2] = system: mucositis toxicity of 5-FU; conditions: maximally-tolerated oral dose of 800 mg/day; 5 μM of 5-FU; cited from earlier work
[3] = system: confluent HPEK cells; assay: Confluent HPEK cell viability with/without 5-FU; format: cell-based, human; conditions: for relative cell viability (AVG): 120 hours; for Relative Protection against 5-FU toxicity / Relative Growth in the presence of 5-FU: HPEK confluent cells; for Relative Protection against 5-FU toxicity: fraction of viability loss prevented; for Relative Growth in the presence of 5-FU: viability with 5-FU divided by viability without 5-FU
Experimental: Oxypurinol and allopurinol concentrations of 0.3 mM, 1.0 mM, and 3.0 mM, which are ten times higher than those used in the first set of experiments, were tested. An adenine concentration of 0.3 mM, which was the higher concentration used in the first set of experiments, was tested. The relative viability of the cells was determined after 120 hours.

[4] = system: confluent NHEK cells; assay: Confluent NHEK cell viability with/without 5-FU; format: cell-based, human; conditions: for relative cell viability (AVG): 120 hours; for Relative Growth in the presence of 5-FU / Relative Protection against 5-FU toxicity: NHEK; for Relative Protection against 5-FU toxicity: fraction of viability loss prevented
Experimental: In yet another set of experiments, the results of which are shown in Table 4, confluent NHEK cells were exposed to the clinically-relevant dose of 10 μM of 5-FU and different concentrations of sodium hydroxide, oxypurinol, or allopurinol using standard tissue culture methods and incubated at 37° C. Sodium hydroxide concentrations of 1 mM, 2 mM, 3 mM, and 4 mM were tested. Oxypurinol and allopurinol concentrations of 0.1 mM, 0.3 mM, 1.0 mM, and 3.0 mM were tested, both in the presence and in the absence of 10 μM of 5-FU. The relative viability of the cells was determined after 120 hours. The sodium hydroxide trials were only performed to serve as a control.

[5] = system: proliferating HGEP cells; assay: Proliferating HGEP cell viability with/without 5-FU; format: cell-based, human; conditions: with 5-FU 10 μM, 120 hours
Experimental: (§1) In one set of experiments, the results of which are shown in Table 1, proliferating HGEP cells, commonly used to assess oral mucosal toxicity, were exposed to the clinically-relevant dose of 10 μM of 5-FU and different concentrations of oxypurinol, either alone or with different concentrations of adenine or uracil, using standard tissue culture methods and incubated at 37° C. Oxypurinol concentrations of 0.03 mM, 0.1 mM, and 0.3 mM were tested. Adenine and uracil concentrations of 0.1 mM and 0.3 mM were tested. The relative viability of the cells was determined after 120 hours.

[6] = system: proliferating HPEK cells; assay: Proliferating HPEK cell viability with/without 5-FU; format: cell-based, human; conditions: with 5-FU 10 μM, 120 hours
Experimental: as §1, with “In another” for “In one”, “Table 2,” for “Table 1,”, “proliferating HPEK” for “proliferating HGEP”, “assess skin tissue” for “assess oral mucosal”

## Oc1ncnc2[nH]ncc12 [Allopurinol, allopurinol]
[1]
  therapeutic benefit against HFS: did not achieve an adequate therapeutic benefit
[2]
  prevention of mucositis toxicity of 5-FU: does not prevent the mucositis toxicity
[3]; 0.3 mM, no 5-FU
  relative cell viability (AVG): 1.1870
[3]; 0.3 mM, with 5-FU 10 μM
  relative cell viability (AVG): 0.7303
[3]; 1.0 mM, no 5-FU
  relative cell viability (AVG): 1.2411
[3]; 1.0 mM, with 5-FU 10 μM
  relative cell viability (AVG): 0.7748
[3]; 3.0 mM, no 5-FU
  relative cell viability (AVG): 1.0410
[3]; 3.0 mM, with 5-FU 10 μM
  relative cell viability (AVG): 0.7528
[3]; 0.3 mM
  Relative Protection against 5-FU toxicity: 0.2464
  Relative Growth in the presence of 5-FU: 0.6152
[3]; 1.0 mM
  Relative Protection against 5-FU toxicity: 0.3709
  Relative Growth in the presence of 5-FU: 0.6243
[3]; 3.0 mM
  Relative Protection against 5-FU toxicity: 0.3092
  Relative Growth in the presence of 5-FU: 0.7231
[3]; concentration range of 0.3 mM to 3.0 mM
  effect on cell viability in the presence of 5-FU: protective effect
[4]; 0.1 mM to 3.0 mM
  effect on cell viability in the presence of 5-FU: protective effect for confluent NHEK cells that was generally less than oxypurinol
[4]; 0.1 mM, no 5-FU
  relative cell viability (AVG): 1.0426
[4]; 0.1 mM, with 5-FU 10 μM
  relative cell viability (AVG): 0.6303
[4]; 0.1 mM, with 5-FU 10 μM, listed as allopurinol
  relative cell viability (AVG): 0.63
[4]; 0.3 mM, no 5-FU
  relative cell viability (AVG): 1.1285
[4]; 0.3 mM, with 5-FU 10 μM
  relative cell viability (AVG): 0.5100
[4]; 0.3 mM, with 5-FU 10 μM, listed as allopurinol
  relative cell viability (AVG): 0.51
[4]; 1.0 mM, no 5-FU
  relative cell viability (AVG): 1.1137
[4]; 1.0 mM, with 5-FU 10 μM
  relative cell viability (AVG): 0.4370
[4]; 1.0 mM, with 5-FU 10 μM, listed as allopurinol
  relative cell viability (AVG): 0.44
[4]; 3.0 mM, FIG. 2
  Relative Growth in the presence of 5-FU: less than 41%
[4]; 3.0 mM, no 5-FU
  relative cell viability (AVG): 1.0640
[4]; 3.0 mM, with 5-FU 10 μM
  relative cell viability (AVG): 0.4348
[4]; 3.0 mM, with 5-FU 10 μM, listed as allopurinol
  relative cell viability (AVG): 0.44
[4]; 0.1 mM
  Relative Protection against 5-FU toxicity: 0.3664
[4]; 0.1 mM, viability with 5-FU divided by viability without 5-FU
  Relative Growth in the presence of 5-FU: 0.6045
[4]; 0.3 mM
  Relative Protection against 5-FU toxicity: 0.1603
[4]; 0.3 mM, viability with 5-FU divided by viability without 5-FU
  Relative Growth in the presence of 5-FU: 0.4519
[4]; 1.0 mM
  Relative Protection against 5-FU toxicity: 0.0352
[4]; 1.0 mM, viability with 5-FU divided by viability without 5-FU
  Relative Growth in the presence of 5-FU: 0.3924
[4]; 3.0 mM
  Relative Protection against 5-FU toxicity: 0.0314
[4]; 3.0 mM, viability with 5-FU divided by viability without 5-FU
  Relative Growth in the presence of 5-FU: 0.4086
[4]; range of 0.1 mM to 3.0 mM
  effect on cell viability in the absence of 5-FU: small positive effect

## O=c1cc[nH]c(=O)[nH]1 [Uracil, uracil, reference compound]
[5]; 0.1 mM
  relative cell viability (AVG): 0.6060
[5]; 0.3 mM
  relative cell viability (AVG): 0.5182
[6]; 0.1 mM
  relative cell viability (AVG): 0.6479
[6]; 0.3 mM
  relative cell viability (AVG): 0.6350
[3]; 0.3 mM, no 5-FU
  relative cell viability (AVG): 1.3781
[3]; 0.3 mM, with 5-FU 10 μM
  relative cell viability (AVG): 0.6482
